Legend:
Sirt3 = target: T1, Sirt3 (Homo sapiens, UniProt Q9NTG7); assay: MS deacetylation assay with acetyl-ACS2 peptide; type: biochemical
T1 construct: residues 118–399
T1 sequence (Q9NTG7 118-399): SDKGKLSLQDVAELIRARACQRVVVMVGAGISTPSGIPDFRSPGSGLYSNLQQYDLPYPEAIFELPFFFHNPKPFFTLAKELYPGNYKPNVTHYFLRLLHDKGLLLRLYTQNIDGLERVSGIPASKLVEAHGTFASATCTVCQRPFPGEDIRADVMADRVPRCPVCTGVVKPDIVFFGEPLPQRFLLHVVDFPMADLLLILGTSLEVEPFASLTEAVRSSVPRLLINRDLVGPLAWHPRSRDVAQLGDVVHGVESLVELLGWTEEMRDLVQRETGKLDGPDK

Sirt1 = target: T2, Sirt1 (Homo sapiens, UniProt Q96EB6); assay: MS deacetylation assay with acetyl-p53 peptide; type: biochemical
T2 construct: Full length human Sirt1
T2 sequence (Q96EB6 2-747): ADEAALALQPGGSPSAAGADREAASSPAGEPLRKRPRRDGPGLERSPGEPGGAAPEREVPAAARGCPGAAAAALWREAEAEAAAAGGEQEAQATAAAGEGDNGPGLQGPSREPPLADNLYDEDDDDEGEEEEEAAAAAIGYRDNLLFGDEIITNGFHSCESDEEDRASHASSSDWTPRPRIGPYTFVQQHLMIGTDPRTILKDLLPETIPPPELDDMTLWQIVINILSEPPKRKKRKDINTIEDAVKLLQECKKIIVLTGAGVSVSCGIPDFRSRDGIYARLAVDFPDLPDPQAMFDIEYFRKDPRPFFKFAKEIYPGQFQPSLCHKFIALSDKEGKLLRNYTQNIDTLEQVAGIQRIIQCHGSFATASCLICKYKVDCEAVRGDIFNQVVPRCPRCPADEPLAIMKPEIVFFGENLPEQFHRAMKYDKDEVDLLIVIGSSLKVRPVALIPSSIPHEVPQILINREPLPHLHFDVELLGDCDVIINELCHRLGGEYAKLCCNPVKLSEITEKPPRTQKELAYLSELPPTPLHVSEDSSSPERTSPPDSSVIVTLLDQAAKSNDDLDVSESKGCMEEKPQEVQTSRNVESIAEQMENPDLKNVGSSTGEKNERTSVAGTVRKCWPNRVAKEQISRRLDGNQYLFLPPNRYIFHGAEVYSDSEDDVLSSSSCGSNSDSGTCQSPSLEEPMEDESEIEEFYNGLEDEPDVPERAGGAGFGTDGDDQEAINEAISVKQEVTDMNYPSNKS

Sirt5 = target: T3, Sirt5 (Homo sapiens, UniProt Q9NXA8); assay: MS desuccinylation assay with succinyl-CPS1 peptide; type: biochemical
T3 construct: residues 34–302
T3 sequence (Q9NXA8 34-302): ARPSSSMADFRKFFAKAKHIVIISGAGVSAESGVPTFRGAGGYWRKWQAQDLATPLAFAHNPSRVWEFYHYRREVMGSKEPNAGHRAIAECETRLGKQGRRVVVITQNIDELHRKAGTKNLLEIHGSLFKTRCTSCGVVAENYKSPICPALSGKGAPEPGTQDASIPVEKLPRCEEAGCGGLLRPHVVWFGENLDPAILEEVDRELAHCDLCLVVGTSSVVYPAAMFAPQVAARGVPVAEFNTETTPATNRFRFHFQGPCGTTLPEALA

Sirt6 [1] = target: T4, Sirt6 (Homo sapiens, UniProt Q8N6T7); assay: crystal structure ([…] Å in Table […]); MS deacetylation assay (activation); type: binding
T4 construct: Sirt6(13–308) for crystals; Sirt6(1-355) for activity

Sirt6 [2] = target: T4, Sirt6; assay: crystal structure at […] Å; MS deacetylation assay (activation at […]); type: binding

T4 sequence (Q8N6T7 whole entry): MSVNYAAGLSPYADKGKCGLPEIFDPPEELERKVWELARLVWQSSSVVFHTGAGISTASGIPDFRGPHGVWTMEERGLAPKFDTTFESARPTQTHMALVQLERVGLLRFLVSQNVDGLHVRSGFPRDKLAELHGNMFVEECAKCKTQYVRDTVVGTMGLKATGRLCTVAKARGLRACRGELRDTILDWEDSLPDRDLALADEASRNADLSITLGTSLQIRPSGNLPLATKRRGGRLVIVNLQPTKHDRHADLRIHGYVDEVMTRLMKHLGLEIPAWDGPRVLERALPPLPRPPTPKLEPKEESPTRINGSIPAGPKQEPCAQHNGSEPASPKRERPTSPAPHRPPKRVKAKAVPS

## O=c1c(O)c(-c2ccc(O)c(O)c2)oc2cc(O)cc(O)c12 [compound 1, quercetin]
Sirt3
  MS deacetylation assay with acetyl-ACS2 peptide: Quercetin caused a concentration-dependent inhibition of all Sirtuin isoforms except for Sirt6
Sirt1
  MS deacetylation assay with acetyl-p53 peptide: Quercetin caused a concentration-dependent inhibition of all Sirtuin isoforms except for Sirt6
Sirt5
  MS desuccinylation assay with succinyl-CPS1 peptide: Quercetin caused a concentration-dependent inhibition of all Sirtuin isoforms except for Sirt6

## O=c1c(O[C@@H]2O[C@H](CO)[C@@H](O)[C@H](O)[C@H]2O)c(-c2ccc(O)c(O)c2)oc2cc(O)cc(O)c12 [compound 4, isoquercetin]
Sirt6 [1]
  crystal structure (1.90 Å in Table 1); MS deacetylation assay (activation): we determined a crystal structure of a Sirt6/ADP-ribose/isoquercetin complex

## Oc1cc(O)c2cc(O)c(-c3ccc(O)c(O)c3)[o+]c2c1 [compound 6, cyanidin]
Sirt6 [2]
  crystal structure at 2.10 Å; MS deacetylation assay (activation at 20-80 μM): we solved a crystal structure of a Sirt6/ADP-ribose/cyanidin complex

— publication PMC6914789 (Scientific Reports, 2019)
